Measured values taken from patent US12286442B2, “Methods and materials for increasing transcription factor eb polypeptide levels” (University of Pittsburgh—Of the Commonwealth System of …, priority 2019, dated 2025).

Test system: BEAS-2B cells
Experiment: Toxicity: compound concentration needed to induce greater than 50 percent of cell loss
Format: cell-based, human
Conditions: 18 hours incubation
Method: (§1) Approximately 2300 primary and immortalized human bronchial epithelial cells (BEAS-2B) stably expressing TFEB-EGFP in 25 μL of HITEs media with 10% FBS were dispensed into 384 well plate (Black with glass bottom) and incubated for 8 hours. Compound serial dilution (DMEM low glucose media with 2% FBS, 25 μL volume) were prepared using a robotic liquid hander. Compound solution were then added to the cell plate and incubated for 18 hours. Cells were then fixed with 4% PFA followed by DAPI staining. TFEB localization was imaged on the GFP channel along with the DAPI signal using a Cytation 5 high content imager. Images were processed through Biotek Gen5 software. Specifically, the DAPI signal was used as the primary mask to quantify the nuclear TFEB-GFP signal. Cytosolic TFEB-GFP signal was quantified through expanding the primary mask. The TFEB nuclear/cytosol ratios were calculated from nuclear TFEB-GFP signal/cytosol TFEB-GFP signal, which determined the compound efficacies.
Toxicity was determined by determining the compound concentration needed to induce greater than 50 percent of cell loss. For toxicity, cell loss of greater than 50 percent at a concentration that equals or is greater than 25 μM was represented as cell loss of greater than 50 percent at a concentration less than 25 μM and greater than 1 μM was represented as and cell loss of greater than 50 percent at a concentration that equals or is less than 1 μM was represented as “+++.” The assay results for compounds 1-202, 214-248, 332, 333, and 352-402 are shown in Table A.

| Compound | toxicity (compound concentration needed to induce greater than 50 percent of cell loss) |
| --- | --- |
| c1ccc2c(Nc3ccc4[nH]ncc4c3)nc(-c3cc[nH]c3)nc2c1 [Compound 89] | ++ (cell loss of greater than 50 percent at a concentration less than 25 μM and greater than 1 μM was represented as) |
| Fc1ccc2nc(-c3ccncc3)nc(Nc3ccc4[nH]ccc4c3)c2c1 [Compound 110] | + (cell loss of greater than 50 percent at a concentration that equals or is greater than 25 μM was represented as) |
| c1ccc2c(Nc3ccc4sncc4c3)nc(-c3cncs3)nc2c1 [Compound 392] | + (cell loss of greater than 50 percent at a concentration that equals or is greater than 25 μM was represented as) |
| CCc1nc2ccc(Nc3nc(-c4ccncc4)nc4ncccc34)cc2s1 [Compound 129] | + (cell loss of greater than 50 percent at a concentration that equals or is greater than 25 μM was represented as) |
| COc1ccc2nc(-c3ccncc3)nc(Nc3ccc4nc(C(C)C)sc4c3)c2c1 [Compound 364] | + (cell loss of greater than 50 percent at a concentration that equals or is greater than 25 μM was represented as) |
| Nc1ccc(Nc2nc(-c3ccncc3)nc3ccccc23)cc1 [Compound 56] | + (cell loss of greater than 50 percent at a concentration that equals or is greater than 25 μM was represented as) |
| c1ccc2c(Nc3ccc4cnsc4c3)nc(-c3cncs3)nc2c1 [Compound 390] | + (cell loss of greater than 50 percent at a concentration that equals or is greater than 25 μM was represented as) |
| N#CCNc1nc(-c2ccncc2)nc2ccccc12 [Compound 169] | + (cell loss of greater than 50 percent at a concentration that equals or is greater than 25 μM was represented as) |
| c1ccc2c(Nc3ccc4cn[nH]c4c3)nc(-c3cncs3)nc2c1 [Compound 389] | + (cell loss of greater than 50 percent at a concentration that equals or is greater than 25 μM was represented as) |
| COc1cc(-c2nc(Nc3cc(F)ccc3C)c3ccccc3n2)cc(OC)c1OC [Compound 198] | + (cell loss of greater than 50 percent at a concentration that equals or is greater than 25 μM was represented as) |
| Fc1cc(-c2nc(Nc3ccc4[nH]ncc4c3)c3ccccc3n2)ccn1 [Compound 47] | +++ (cell loss of greater than 50 percent at a concentration that equals or is less than 1 μM was represented as “+++.”) |
| Cc1ccc(-c2nc(Nc3ccccc3F)c3ccccc3n2)cc1 [Compound 201] | + (cell loss of greater than 50 percent at a concentration that equals or is greater than 25 μM was represented as) |
| c1cncc(-c2cc3ncccc3c(Nc3ccc4nc(C5CC5)sc4c3)n2)c1 [Compound 247] | + (cell loss of greater than 50 percent at a concentration that equals or is greater than 25 μM was represented as) |
| Fc1cccc(Nc2nc(-c3ccncc3)cc3ncccc23)c1 [Compound 245] | + (cell loss of greater than 50 percent at a concentration that equals or is greater than 25 μM was represented as) |
| c1ccc2c(Nc3ccc4scnc4c3)nc(-c3ccncc3)nc2c1 [Compound 27] | + (cell loss of greater than 50 percent at a concentration that equals or is greater than 25 μM was represented as) |
| c1ccc2c(Nc3ccc4[nH]ncc4c3)nc(C3CCNCC3)nc2c1 [Compound 76] | + (cell loss of greater than 50 percent at a concentration that equals or is greater than 25 μM was represented as) |
| Cc1c(Nc2nc(-c3ccncc3)nc3ncccc23)ccc2[nH]ccc12 [Compound 137] | + (cell loss of greater than 50 percent at a concentration that equals or is greater than 25 μM was represented as) |
| c1cnc2ccc(Nc3nc(-c4cncs4)nc4ccccc34)cc2c1 [Compound 106] | + (cell loss of greater than 50 percent at a concentration that equals or is greater than 25 μM was represented as) |
| c1cnc2nc(-c3cncs3)nc(Nc3ccc4[nH]ncc4c3)c2c1 [Compound 383] | + (cell loss of greater than 50 percent at a concentration that equals or is greater than 25 μM was represented as) |
| C1=C(c2nc(Nc3ccc4[nH]ncc4c3)c3ccccc3n2)CCNC1 [Compound 75] | + (cell loss of greater than 50 percent at a concentration that equals or is greater than 25 μM was represented as) |
| CCC(C)NC(=O)Cn1c(=O)n(-c2ccc(OC)cc2)c(=O)c2ccc(C(=O)NCc3ccc(C)cc3)cc21 (centres unmarked) [Compound 216] | + (cell loss of greater than 50 percent at a concentration that equals or is greater than 25 μM was represented as) |
| Cc1cc2cc(Nc3nc(-c4ccncc4)nc4ccccc34)ccc2[nH]1 [Compound 62] | +++ (cell loss of greater than 50 percent at a concentration that equals or is less than 1 μM was represented as “+++.”) |
| c1ccc2c(Nc3ccc4[nH]ccc4c3)cc(-c3ccncc3)nc2c1 [Compound 67] | + (cell loss of greater than 50 percent at a concentration that equals or is greater than 25 μM was represented as) |
| Cc1cc(Nc2nc(-c3ccncc3)nc3ccccc23)cc(C(F)(F)F)c1 [Compound 10] | + (cell loss of greater than 50 percent at a concentration that equals or is greater than 25 μM was represented as) |
| Cc1nc2ccc(Nc3nc(-c4ccncc4)nc4c(C)cccc34)cc2o1 [Compound 377] | + (cell loss of greater than 50 percent at a concentration that equals or is greater than 25 μM was represented as) |

Test system: TFEB
Experiment: High content screen measuring TFEB nuclear accumulation (TFEB nuclear/cytosol ratio) in BEAS-2B cells stably expressing TFEB-EGFP
Format: cell-based, human
Conditions: 18 hours incubation
Method: FIG. 3. High content screen assay (384 well) measuring TFEB nuclear accumulation. Approximately 2500 primary and immortalized human bronchial epithelial cells (BEAS-2B) stably expressing TFEB-EGFP in 25 μL of HITEs media with 10% FBS were dispensed into 384 well plate (Black with glass bottom) and incubated for 8 hours. Compound serial dilution (DMEM low glucose media with 2% FBS, 25 μL volume) were prepared using a robotic liquid hander. Compound solutions were then added to the cell plate and incubated for 18 hours. Cells were then fixed with 4% PFA followed by DAPI staining. TFEB localization was imaged on the GFP channel along with the DAPI signal using a Cytation 5 high content imager. Images were processed through Biotek Gen5 software; specifically, the DAPI signal was used as the primary mask to quantify the nuclear TFEB-GFP signal. The cytosolic TFEB-GFP signal was quantified through expanding the primary mask. The TFEB nuclear/cytosol ratios were calculated from nuclear TFEB-GFP signal/cytosol TFEB-GFP signal, which determined the compound efficacy. […] Compound activities (μM) were determined by the minimal compound concentration needed to increase TFEB nuclear/cytosol ratio by 25%. Activity: “−” equals >25 μM; “+” equals between 25 μM and >10 μM; “++” equals between ≤10 μM and >1 μM; and “+++” equals […]. N=4.
as §1
Compounds efficacies (μM) were determined by the minimal compound concentration needed to increase TFEB nuclear/cytosol ratio by 25%. Activity: “+” equals >25 μM; “++” equals between ≤25 μM and >1 μM; and “+++” equals ≤1 μM.
A high-content imaging screen was conducted using Beas2B cells that stably express GFP-TFEB.

| Compound | efficacy (minimal compound concentration needed to increase TFEB nuclear/cytosol ratio by 25%) |
| --- | --- |
| c1ccc2c(Nc3ccc4[nH]ncc4c3)nc(-c3cc[nH]c3)nc2c1 [Compound 89] | ++ (“++” equals between ≤25 μM and >1 μM) |
| Fc1ccc2nc(-c3ccncc3)nc(Nc3ccc4[nH]ccc4c3)c2c1 [Compound 110] | +++ (“+++” equals ≤1 μM) |
| c1ccc2c(Nc3ccc4sncc4c3)nc(-c3cncs3)nc2c1 [Compound 392] | + (“+” equals >25 μM) |
| CCc1nc2ccc(Nc3nc(-c4ccncc4)nc4ncccc34)cc2s1 [Compound 129] | +++ (“+++” equals ≤1 μM) |
| COc1ccc2nc(-c3ccncc3)nc(Nc3ccc4nc(C(C)C)sc4c3)c2c1 [Compound 364] | + (“+” equals >25 μM) |
| Nc1ccc(Nc2nc(-c3ccncc3)nc3ccccc23)cc1 [Compound 56] | ++ (“++” equals between ≤25 μM and >1 μM) |
| c1ccc2c(Nc3ccc4cnsc4c3)nc(-c3cncs3)nc2c1 [Compound 390] | + (“+” equals >25 μM) |
| N#CCNc1nc(-c2ccncc2)nc2ccccc12 [Compound 169] | + (“+” equals >25 μM) |
| c1ccc2c(Nc3ccc4cn[nH]c4c3)nc(-c3cncs3)nc2c1 [Compound 389] | + (“+” equals >25 μM) |
| COc1cc(-c2nc(Nc3cc(F)ccc3C)c3ccccc3n2)cc(OC)c1OC [Compound 198] | + (“+” equals >25 μM) |
| Fc1cc(-c2nc(Nc3ccc4[nH]ncc4c3)c3ccccc3n2)ccn1 [Compound 47] | +++ (“+++” equals ≤1 μM) |
| Cc1ccc(-c2nc(Nc3ccccc3F)c3ccccc3n2)cc1 [Compound 201] | + (“+” equals >25 μM) |
| c1cncc(-c2cc3ncccc3c(Nc3ccc4nc(C5CC5)sc4c3)n2)c1 [Compound 247] | ++ (“++” equals between ≤25 μM and >1 μM) |
| Fc1cccc(Nc2nc(-c3ccncc3)cc3ncccc23)c1 [Compound 245] | +++ (“+++” equals ≤1 μM) |
| c1ccc2c(Nc3ccc4scnc4c3)nc(-c3ccncc3)nc2c1 [Compound 27] | +++ (“+++” equals ≤1 μM) |
| c1ccc2c(Nc3ccc4[nH]ncc4c3)nc(C3CCNCC3)nc2c1 [Compound 76] | + (“+” equals >25 μM) |
| Cc1c(Nc2nc(-c3ccncc3)nc3ncccc23)ccc2[nH]ccc12 [Compound 137] | +++ (“+++” equals ≤1 μM) |
| c1cnc2ccc(Nc3nc(-c4cncs4)nc4ccccc34)cc2c1 [Compound 106] | + (“+” equals >25 μM) |
| c1cnc2nc(-c3cncs3)nc(Nc3ccc4[nH]ncc4c3)c2c1 [Compound 383] | ++ (“++” equals between ≤25 μM and >1 μM) |
| C1=C(c2nc(Nc3ccc4[nH]ncc4c3)c3ccccc3n2)CCNC1 [Compound 75] | + (“+” equals >25 μM) |
| CCC(C)NC(=O)Cn1c(=O)n(-c2ccc(OC)cc2)c(=O)c2ccc(C(=O)NCc3ccc(C)cc3)cc21 (centres unmarked) [Compound 216] | + (“+” equals >25 μM) |
| Cc1cc2cc(Nc3nc(-c4ccncc4)nc4ccccc34)ccc2[nH]1 [Compound 62] | +++ (“+++” equals ≤1 μM) |
| c1ccc2c(Nc3ccc4[nH]ccc4c3)cc(-c3ccncc3)nc2c1 [Compound 67] | + (“+” equals >25 μM) |
| Cc1cc(Nc2nc(-c3ccncc3)nc3ccccc23)cc(C(F)(F)F)c1 [Compound 10] | + (“+” equals >25 μM) |
| Cc1nc2ccc(Nc3nc(-c4ccncc4)nc4c(C)cccc34)cc2o1 [Compound 377] | ++ (“++” equals between ≤25 μM and >1 μM) |
